PubChem BioAssay AID624286 (Southern Research Specialized Biocontainment Screening …, 2012)
Activity calls are given as the source filed them. The rule behind the calls is not given here.

Tested on: VEEV TC-83 infected cells, virus titer reduction
Assay: VEEV TC-83 virus titer reduction, cell-based secondary screen, inhibitor project set 3 (AID 624286)
Conditions: at 5 µM; stronger effect = lower value

| SMILES | log virus titer change |
| --- | --- |
| O=c1c2cc([N+](=O)[O-])ccc2nc(CN2CCCCC2)n1-c1ccccc1F | -0.366 (inactive) |
| CCN1CCN(Cc2nc3ccc([N+](=O)[O-])cc3c(=O)n2-c2cccc(F)c2)CC1 | < -7.11 |
| CCN1CCN(Cc2nc3ccc(I)cc3c(=O)n2-c2ccccc2)CC1 | -0.33 (inactive) |
| O=c1c2cc([N+](=O)[O-])ccc2nc(CN2CCNCC2)n1-c1ccccc1F | < -7.76 |
| CCN1CCN(Cc2nc3ccc([N+](=O)[O-])cc3c(=O)n2-c2ccc(F)cc2)CC1 | -5.88 |
| O=c1c2cc([N+](=O)[O-])ccc2nc(CN2CCNCC2)n1-c1ccccc1 | < -7.76 |
| CCN1CCN(Cc2nc3ccc([N+](=O)[O-])cc3c(=O)n2-c2ccccc2)CC1 | < -7.54 |
| CN1CCN(Cc2nc3ccc([N+](=O)[O-])cc3c(=O)n2-c2ccccc2F)CC1 | < -7.76 |
